Data taken from publication PMC5164911, “Comparative Analysis of the Interaction between Different Flavonoids and PDIA3” (Oxidative Medicine and Cellular Longevity, 2016).

Legend:
PDIA3 [1] = biological target: T1, PDIA3 (Homo sapiens, UniProt P30101); test: Fluorescence quenching titration of PDIA3 intrinsic fluorescence; format: binding; conditions: for Stern-Volmer constant (K SV): 0.5∗10^−6 M PDIA3 in reduced conditions, pH 7.4, 25°C, flavonoid 0 to 10∗10^−6 M, mean and standard deviation; for bimolecular quenching rate constant (K q): K SV = K q τ0 with τ0 of the order of 10^−8 s; for bimolecular quenching rate constant (K q) / Kd / binding constant (K b): reduced PDIA3, pH 7.4, 25°C; for Kd: K d = 1/K b, read-out: dissociation constant (K d); for binding constant (K b): equation of Bi et al., reiterative calculation of Sun et al.
T1 construct: made in house; host or cells: E. coli BL21 (vector pET21)
T1 sequence (P30101 25-505): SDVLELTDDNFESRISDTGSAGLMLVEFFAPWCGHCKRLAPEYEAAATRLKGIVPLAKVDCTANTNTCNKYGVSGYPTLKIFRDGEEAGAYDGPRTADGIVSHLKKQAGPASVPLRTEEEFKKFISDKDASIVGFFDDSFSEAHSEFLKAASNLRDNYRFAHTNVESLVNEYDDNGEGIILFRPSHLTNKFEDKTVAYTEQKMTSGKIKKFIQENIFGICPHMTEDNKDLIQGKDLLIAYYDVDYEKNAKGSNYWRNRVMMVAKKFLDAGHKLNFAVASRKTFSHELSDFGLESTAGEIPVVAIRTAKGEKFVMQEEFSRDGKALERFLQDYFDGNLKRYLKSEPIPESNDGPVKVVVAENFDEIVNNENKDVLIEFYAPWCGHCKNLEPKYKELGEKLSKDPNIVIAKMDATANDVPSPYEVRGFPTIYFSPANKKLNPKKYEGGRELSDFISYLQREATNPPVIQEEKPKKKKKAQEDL
Protocol: Quantitative analysis of the interaction between individual flavonoids and PDIA3 was performed by fluorimetric titration. […] Briefly, solution of PDIA3 (0.5 μM) or a and a′ domains (1 μM) in phosphate buffered saline (PBS) containing DTT 0.1 mM and EDTA 0.2 mM were titrated in quartz cuvette by stepwise additions, at 5 min time intervals, of individual flavonoid solution (1 mM in PBS/ethanol 50 : 50 v/v freshly prepared from a 20 mM stock solution in DMSO). […] To minimize the inner-filter effect we limited the highest concentration reached in the titration test up to 10 μM. All experiments were carried out at 25°C. Each spectrum was the mean of three repeated scans. Fluorescence spectra of appropriate blanks (flavonoids without proteins) were recorded under the same experimental conditions and subtracted from the corresponding flavonoid-protein system to correct the fluorescence background.
Quenching analysis was performed on PDIA3 (0.5 μM), in the reduced form, by adding stepwise increasing concentration of each molecule and recording the protein fluorescence spectra. For some flavonoids the analysis was extended to isolate a′ domain (1 μM), always in the reduced form. […] For each ligand molecule the Stern-Volmer quenching constant was obtained by linear regression of plots of F 0/F versus [L].
The Stern-Volmer quenching constant may be expressed as K SV = K q τ 0, where K q is the quencher rate coefficient and τ 0 is the average lifetime of the emissive excited state of the protein in the absence of the quencher.
The number of binding sites (n) and the binding constant (K b) were obtained by plotting log((F 0 − F)/F) versus log(1/([L t] − n(F 0 − F)[P t]/F 0)) using the reiterative calculation process described by Sun et al., assuming a similar affinity for each binding site.

PDIA3 [2] = biological target: T1, PDIA3; test: Differential scanning fluorimetry (thermal stability, SYPRO Orange); format: binding; conditions: for Effect on PDIA3 stability (T m): flavonoid up to 50 μM, mainly at the highest concentration; for Increase in melting temperature (T m) of PDIA3: 50 μM flavonoid, reduced PDIA3 1 μM
Protocol: Protein stability was tested by the fluorescence-based thermal stability assay or differential scanning fluorimetry (DSF) developed by Pantoliano and coworkers. DSF records the fluorescence emission signal from the binding of a dye (SYPRO orange) to the exposed hydrophobic patches upon protein unfolding. Fluorescence measurements were performed using a CFX96 Connect RT-PCR instrument (BioRad). 18 μl aliquots of protein solution (1 μM), freshly diluted in Tris Buffered saline (50 mM TrisHCl, pH 8.0, 150 mM NaCl) containing 0.1 mM DTT, 0.2 mM EDTA, and 1 : 1000 dilution of SYPRO Orange (50 mM stock solution in DMSO), were distributed in a 96-well plate. Sample wells were addition of increasing concentration (up to 50 μM) of individual flavonoid by adding 2 μl of 10-fold concentrated stock solutions freshly prepared. As control, the protein solution was added with 2 μl of the dilution buffer. A melting point analysis was recorded increasing the temperature from 20 to 95°C with an increment of 0.5°C and reading, at each temperature, the fluorescence in fluorescence resonance energy transfer mode (FRET). Each measure was the average of three sample wells reading and each DSF experiment was repeated at least three times. To calculate T m values, DSF data from the melting curve were exported and fitted to Boltzman equation using GraphPad software. Effect of flavonoids was evaluated comparing the T m values in presence and absence of each molecule.

PDIA3 [3] = biological target: T1, PDIA3; test: Disulfide reductase activity with DiE-GSSG fluorogenic probe; format: biochemical; conditions: DiE-GSSG substrate; for Inhibition of disulfide reductase (redox) activity: 20 μM flavonoid (Figure 7)
Protocol: Disulfide reductase activity of ERp57 was monitored by sensitive fluorescent assay using dieosin glutathione disulfide (DiE-GSSG) as fluorogenic probe. DiE-GSSG was synthesized by the reaction of eosin isothiocyanate with oxidized glutathione (GSSG) according to the method of Raturi and Mutus with some modifications. DiE-GSSG concentration was determined spectrophotometrically (ℇ 525 = 88,000 M^-1 cm^−1). Disulfide reductase activity was assayed in a reaction buffer containing 2 mM EDTA, 150 nM DiE-GSSG, and 5 μM DTT in PBS. A 20 μl aliquot of a stock solution of PDIA3 (1 μM) was added to the reaction mixture and DiE-GSSG reduction was monitored at 545 nm with excitation at 520 nm, at 25°C with continuous stirring. Reductase activity was calculated as the initial velocity in fluorescence increase. To test the effect of flavonoids on PDIA3 activity, the protein stock solution was previously incubated for 15 minutes at room temperature with different concentrations of each flavonoid and then a 20 μl aliquot subjected to assay in a reaction buffer containing the same concentration of the flavonoid.
Fluorescence quenching constant (K SV) values were given as means ± standard deviation and values of disulfide reductase activity were expressed in % of control sample ± relative standard deviation. All measurements were performed at least three times. Dunnett's test was used to compare the obtained reductase activity data with the activity of the untreated protein and a p value of <0.01 was considered as statistically significant.

## C[C@@H]1O[C@@H](OC[C@H]2O[C@@H](Oc3c(-c4ccc(O)c(O)c4)oc4cc(O)cc(O)c4c3=O)[C@H](O)[C@@H](O)[C@@H]2O)[C@H](O)[C@H](O)[C@H]1O [Rutin, rutin]
PDIA3 [1]
  Stern-Volmer constant (K SV): 45197 ± 465 M⁻¹
  bimolecular quenching rate constant (K q): 4.52e+12 M⁻¹ s⁻¹
  Kd: 22 µM
  binding constant (K b): 45500 M⁻¹

## O=c1c(-c2ccc(O)cc2)coc2cc(O)cc(O)c12 [Genistein, genistein]
PDIA3 [1]
  Stern-Volmer constant (K SV): 22953 ± 435 M⁻¹
  bimolecular quenching rate constant (K q): 2.3e+12 M⁻¹ s⁻¹
  Kd: 41 µM
  binding constant (K b): 24400 M⁻¹
PDIA3 [2]
  Effect on PDIA3 stability (T m): similar, but less pronounced, effect

## O=c1c(O[C@@H]2O[C@H](CO)[C@@H](O)[C@H](O)[C@H]2O)c(-c2ccc(O)c(O)c2)oc2cc(O)cc(O)c12 [Isoquercetin, isoquercetin]
PDIA3 [1]
  Stern-Volmer constant (K SV): 25738 ± 367 M⁻¹
  bimolecular quenching rate constant (K q): 2.57e+12 M⁻¹ s⁻¹
  Kd: 34.4 µM
  binding constant (K b): 29100 M⁻¹

## COc1c(-c2ccc(O)c(O)c2)oc2cc(O)cc(O)c2c1=O [3-O-Methyl-quercetin, 3-O-methyl quercetin]
PDIA3 [1]
  Stern-Volmer constant (K SV): 41110 ± 794 M⁻¹
  bimolecular quenching rate constant (K q): 4.11e+12 M⁻¹ s⁻¹
  Kd: 21.9 µM
  binding constant (K b): 45700 M⁻¹

## COc1ccc(-c2cc(=O)c3cc(OC)ccc3o2)c(OC)c1 [Trimethoxyflavone, 6,2′,4′-trimethoxyflavone]
PDIA3 [1]
  Stern-Volmer constant (K SV): 22209 ± 484 M⁻¹
  bimolecular quenching rate constant (K q): 2.22e+12 M⁻¹ s⁻¹
  Kd: 55.2 µM

## O=c1c(O)c(-c2ccc(O)cc2O)oc2cc(O)cc(O)c12 [Morin, morin]
PDIA3 [1]
  Stern-Volmer constant (K SV): 24063 ± 265 M⁻¹
  bimolecular quenching rate constant (K q): 2.41e+12 M⁻¹ s⁻¹
  Kd: 39 µM
  binding constant (K b): 25600 M⁻¹
PDIA3 [3]
  Inhibition of disulfide reductase (redox) activity: approximately 20%
  Effect on disulfide reductase activity (in words): some inhibitory effect
PDIA3 [2]
  Increase in melting temperature (T m) of PDIA3: increased more than three degrees

## O=C1C[C@@H](c2ccc(O)cc2)Oc2cc(O)cc(O)c21 [Naringenin, naringenin]
PDIA3 [1]
  Stern-Volmer constant (K SV): 16900 ± 352 M⁻¹
  bimolecular quenching rate constant (K q): 1.69e+12 M⁻¹ s⁻¹
  Kd: 57.8 µM
  binding constant (K b): 17300 M⁻¹

## O=c1cc(-c2ccc(O)cc2)oc2cc(O[C@@H]3O[C@H](CO)[C@@H](O)[C@H](O)[C@H]3O)cc(O)c12 [Apigenin-7-glucoside, apigenin-7-glucoside]
PDIA3 [1]
  Stern-Volmer constant (K SV): 43961 ± 673 M⁻¹
  bimolecular quenching rate constant (K q): 4.4e+12 M⁻¹ s⁻¹
  Kd: 21.1 µM
  binding constant (K b): 47300 M⁻¹

## O=c1cc(-c2ccc(O)c(O)c2)oc2cc(O[C@@H]3O[C@H](CO)[C@@H](O)[C@H](O)[C@H]3O)cc(O)c12 [Luteolin-7-glucoside, luteolin-7-glucoside]
PDIA3 [1]
  Stern-Volmer constant (K SV): 31601 ± 484 M⁻¹
  bimolecular quenching rate constant (K q): 3.16e+12 M⁻¹ s⁻¹
  Kd: 28.9 µM
  binding constant (K b): 34600 M⁻¹

## O=c1c(O)c(-c2ccc(O)cc2)oc2cc(O)cc(O)c12 [Kaempferol, kaempferol]
PDIA3 [1]
  Stern-Volmer constant (K SV): 28423 ± 982 M⁻¹
  bimolecular quenching rate constant (K q): 2.84e+12 M⁻¹ s⁻¹
  Kd: 38.5 µM
  binding constant (K b): 26000 M⁻¹
PDIA3 [2]
  Increase in melting temperature (T m) of PDIA3: increased more than three degrees

## COc1cc(O)c2c(=O)c(O)c(-c3ccc(O)c(O)c3)oc2c1 [Rhamnetin, rhamnetin]
PDIA3 [1]
  Stern-Volmer constant (K SV): 28462 ± 295 M⁻¹
  bimolecular quenching rate constant (K q): 2.85e+12 M⁻¹ s⁻¹
  Kd: 33.2 µM
  binding constant (K b): 30100 M⁻¹
PDIA3 [2]
  Effect on PDIA3 stability (T m): similar, but less pronounced, effect

## Oc1cc(O)c2cc(O)c(-c3ccc(O)c(O)c3)[o+]c2c1 [Cyanidin, cyanidin]
PDIA3 [1]
  Stern-Volmer constant (K SV): 29761 ± 635 M⁻¹
  bimolecular quenching rate constant (K q): 2.98e+12 M⁻¹ s⁻¹
  Kd: 34.2 µM
  binding constant (K b): 29300 M⁻¹
PDIA3 [3]
  Inhibition of disulfide reductase (redox) activity: approximately 20%
PDIA3 [2]
  Effect on PDIA3 stability (T m): similar, but less pronounced, effect

## O=c1c(O)c(-c2ccc(O)c(O)c2)oc2cc(O)ccc12 [Fisetin, fisetin]
PDIA3 [1]
  Stern-Volmer constant (K SV): 33164 ± 542 M⁻¹
  bimolecular quenching rate constant (K q): 3.32e+12 M⁻¹ s⁻¹
  Kd: 27.1 µM
  binding constant (K b): 36700 M⁻¹
PDIA3 [2]
  Increase in melting temperature (T m) of PDIA3: increased more than three degrees

## C[C@@H]1O[C@@H](Oc2c(-c3ccc(O)c(O)c3)oc3cc(O)cc(O)c3c2=O)[C@H](O)[C@H](O)[C@H]1O [Quercitrin, quercitrin]
PDIA3 [1]
  Stern-Volmer constant (K SV): 29211 ± 483 M⁻¹
  bimolecular quenching rate constant (K q): 2.92e+12 M⁻¹ s⁻¹
  Kd: 31 µM
  binding constant (K b): 32300 M⁻¹

## COc1cc(-c2oc3cc(O)cc(O)c3c(=O)c2O)ccc1O [Isorhamnetin, isorhamnetin]
PDIA3 [1]
  Stern-Volmer constant (K SV): 36109 ± 1271 M⁻¹
  bimolecular quenching rate constant (K q): 3.61e+12 M⁻¹ s⁻¹
  Kd: 30.8 µM
  binding constant (K b): 32500 M⁻¹
PDIA3 [2]
  Effect on PDIA3 stability (T m): similar, but less pronounced, effect
